{"source": "paper PMC9295122", "about": "“Sialic Acid Derivatives Inhibit SiaT Transporters and Delay Bacterial Growth” (ACS Chemical Biology, 2022)", "key": {"[1]": {"assay": "Plasma stability, rat", "assay_type": "in vitro ADME", "conditions": "1 μM, 37 °C", "procedure": "(§1) The reaction was started by the addition of the compound to blank plasma in LC vials after preincubation at 37 °C. The initial compound concentration was 1 μM. The reaction was stopped by the addition of ACN at seven time points (0, 0.5, 1, 2, 4, 6, and 23 h). Time point 0 h was about 15–20 s after spiking the plasma with the compound. The samples were centrifuged and the supernatant diluted and analyzed by LC–MS/MS to determine the % of compound remaining relative to the initial concentration of compound."}, "[2]": {"assay": "LogD pH 7.4 shake flask", "assay_type": "physicochemical", "conditions": "1-octanol / phosphate buffer pH 7.4", "procedure": "Distribution coefficients between 1-octanol and phosphate buffer pH 7.4 were determined with a shake flask method with the LC–UV detection of the compound concentration in both phases. The reported range was from −1 to +4."}, "[3]": {"assay": "Plasma stability, mini pig", "assay_type": "in vitro ADME", "conditions": "1 μM, 37 °C", "procedure": "as §1"}, "[4]": {"target": "SaSiaT (Staphylococcus aureus, UniProt A0A0H2XJ46)", "sequence (A0A0H2XJ46 entry or part of it)": "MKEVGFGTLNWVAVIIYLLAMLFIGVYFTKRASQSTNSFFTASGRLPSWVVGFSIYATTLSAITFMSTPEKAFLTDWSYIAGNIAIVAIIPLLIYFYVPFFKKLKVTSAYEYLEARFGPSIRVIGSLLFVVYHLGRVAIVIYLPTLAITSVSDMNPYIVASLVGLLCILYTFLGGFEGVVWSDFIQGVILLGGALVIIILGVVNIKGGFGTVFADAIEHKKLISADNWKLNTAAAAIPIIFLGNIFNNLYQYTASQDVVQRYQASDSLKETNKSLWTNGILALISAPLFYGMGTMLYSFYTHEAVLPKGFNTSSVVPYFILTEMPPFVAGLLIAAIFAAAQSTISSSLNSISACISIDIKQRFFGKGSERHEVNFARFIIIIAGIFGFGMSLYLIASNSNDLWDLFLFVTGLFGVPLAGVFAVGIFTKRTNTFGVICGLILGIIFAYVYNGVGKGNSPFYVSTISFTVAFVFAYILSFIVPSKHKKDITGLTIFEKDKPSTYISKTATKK", "assay": "nanoDSF thermal shift assay, SaSiaT", "assay_type": "binding", "conditions": "for Average 1 / Average 2 / Average 3 / Replicate 1 / Replicate 2 / Replicate 3: SaSiaT Tm; for Average 1: average of experiment 1; for Average 2: average of experiment 2; for Average 3: average of experiment 3; for Replicate 1: experiment 1, second capillary; for Replicate 1 / Replicate 2 / Replicate 3 / Tm 1 / Tm2 / Tm 3 / Overall average (Tm): 1.25 mM; for Replicate 2: experiment 2, second capillary; for Replicate 3: experiment 3, second capillary; for Tm 1 / Tm2 / Tm 3 / Overall average (Tm): SaSiaT; for Tm 1: experiment 1, first capillary; for Tm2: experiment 2, first capillary; for Tm 3: experiment 3, first capillary; for Overall average (Tm): three experiments", "procedure,_shortened": "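Protein at 2 μM in PBS with 0.0174% (w/v) DDM and ligand at 1.25 mM were heated from 25 to 95 °C at 1 °C/min, with 330/350 nm fluorescence ratio and its first derivative giving Tm. ΔTm is relative to the Neu5Ac Tm, averaged over 3 experiments with 2 capillaries each.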"}, "[5]": {"assay": "Plasma-protein binding by RED, rat", "assay_type": "in vitro ADME", "conditions": "pH 7.2, read-out: Plasma-protein binding by RED (% unbound compound, average n=2)", "procedure": "The assay was run in a deep well plate containing RED inserts with semipermeable dialysis membranes. The reaction was started by adding the compounds to a blank plasma in a 5 μM concentration. Opposite to the blank plasma was a compartment containing isotonic sodium–phosphate buffer (pH 7.2) separated from the plasma by the membrane. The plate was equilibrated in a water bath at 37 °C for 4 h. Samples from both the plasma and the buffer side were matrix compensated before protein precipitation. The samples were centrifuged, and the supernatants were diluted and analyzed by LC–MS/MS to determine the % unbound compound. Two incubations per compound per species."}}, "data": [{"molecule": "CC(=O)NC1C(OCc2ccccc2)CC(O)(C(=O)O)OC1C(O)C(O)CO", "note": "(centres unmarked) [Compound 3a]", "values": [{"measurement": "In vitro plasma stability (% compound remaining after 23 h)", "setting": "[1]", "result": 100, "unit": "%"}, {"measurement": "logD", "setting": "[2]", "result": "< -0.5"}, {"measurement": "In vitro plasma stability (% compound remaining after 23 h)", "setting": "[3]", "result": 100, "unit": "%"}, {"measurement": "Average 1", "setting": "[4]", "result": 56.2, "unit": "°C"}, {"measurement": "Average 2", "setting": "[4]", "result": 55.7, "unit": "°C"}, {"measurement": "Average 3", "setting": "[4]", "result": 56.3, "unit": "°C"}, {"measurement": "Replicate 1", "setting": "[4]", "result": 56.1, "unit": "°C"}, {"measurement": "Replicate 2", "setting": "[4]", "result": 55.8, "unit": "°C"}, {"measurement": "Replicate 3", "setting": "[4]", "result": 56.1, "unit": "°C"}, {"measurement": "Tm 1", "setting": "[4]", "result": 56.2, "unit": "°C"}, {"measurement": "Tm2", "setting": "[4]", "result": 55.7, "unit": "°C"}, {"measurement": "Tm 3", "setting": "[4]", "result": 56.6, "unit": "°C"}, {"measurement": "Overall average (Tm)", "setting": "[4]", "result": 56.1, "unit": "°C"}, {"measurement": "fraction unbound at 4 h, 5 μM", "setting": "[5]", "result": 0.72}]}, {"molecule": "CC(=O)NC1C(OCc2cc(F)cc(F)c2)CC(O)(C(=O)O)OC1C(O)C(O)CO", "note": "(centres unmarked) [Compound 3e]", "values": [{"measurement": "In vitro plasma stability (% compound remaining after 23 h)", "setting": "[1]", "result": 100, "unit": "%"}, {"measurement": "logD", "setting": "[2]", "result": "< -0.5"}, {"measurement": "In vitro plasma stability (% compound remaining after 23 h)", "setting": "[3]", "result": 100, "unit": "%"}, {"measurement": "Average 1", "setting": "[4]", "result": 57.3, "unit": "°C"}, {"measurement": "Average 2", "setting": "[4]", "result": 56.7, "unit": "°C"}, {"measurement": "Average 3", "setting": "[4]", "result": 57.1, "unit": "°C"}, {"measurement": "Replicate 1", "setting": "[4]", "result": 57.3, "unit": "°C"}, {"measurement": "Replicate 2", "setting": "[4]", "result": 56.7, "unit": "°C"}, {"measurement": "Replicate 3", "setting": "[4]", "result": 56.9, "unit": "°C"}, {"measurement": "Tm 1", "setting": "[4]", "result": 57.3, "unit": "°C"}, {"measurement": "Tm2", "setting": "[4]", "result": 56.6, "unit": "°C"}, {"measurement": "Tm 3", "setting": "[4]", "result": 57.2, "unit": "°C"}, {"measurement": "Overall average (Tm)", "setting": "[4]", "result": 57.0, "unit": "°C"}, {"measurement": "fraction unbound at 4 h, 5 μM", "setting": "[5]", "result": 0.67}]}, {"molecule": "CC(=O)NC1C(OCc2cc(Br)cc(Br)c2)CC(O)(C(=O)O)OC1C(O)C(O)CO", "note": "(centres unmarked) [Compound 3f]", "values": [{"measurement": "In vitro plasma stability (% compound remaining after 23 h)", "setting": "[1]", "result": 100, "unit": "%"}, {"measurement": "logD", "setting": "[2]", "result": "< 0"}, {"measurement": "In vitro plasma stability (% compound remaining after 23 h)", "setting": "[3]", "result": 39, "unit": "%"}, {"measurement": "Average 1", "setting": "[4]", "result": 53.1, "unit": "°C"}, {"measurement": "Average 2", "setting": "[4]", "result": 54.0, "unit": "°C"}, {"measurement": "Average 3", "setting": "[4]", "result": 54.4, "unit": "°C"}, {"measurement": "Replicate 1", "setting": "[4]", "result": 53.1, "unit": "°C"}, {"measurement": "Replicate 2", "setting": "[4]", "result": 54.0, "unit": "°C"}, {"measurement": "Replicate 3", "setting": "[4]", "result": 54.3, "unit": "°C"}, {"measurement": "Tm 1", "setting": "[4]", "result": 53.1, "unit": "°C"}, {"measurement": "Tm2", "setting": "[4]", "result": 54.0, "unit": "°C"}, {"measurement": "Tm 3", "setting": "[4]", "result": 54.4, "unit": "°C"}, {"measurement": "Overall average (Tm)", "setting": "[4]", "result": 53.8, "unit": "°C"}, {"measurement": "ΔTm", "setting": "[4]; nanoDSF, relative to Neu5Ac, ligand 1.25 mM, <−5 °C nonbinder", "result": "2.6 ± 0.7", "unit": "°C"}, {"measurement": "fraction unbound at 4 h, 5 μM", "setting": "[5]", "result": 0.21}]}, {"molecule": "CC(=O)N[C@H]1[C@H]([C@H](O)[C@H](O)CO)OC(O)(C(=O)O)C[C@@H]1O", "note": "(some centres unmarked) [Neu5Ac, 5-N-acetyl neuraminic acid, reference compound]", "values": [{"measurement": "Average 1", "setting": "[4]", "result": 51.3, "unit": "°C"}, {"measurement": "Average 2", "setting": "[4]", "result": 51.1, "unit": "°C"}, {"measurement": "Average 3", "setting": "[4]", "result": 51.3, "unit": "°C"}, {"measurement": "Replicate 1", "setting": "[4]", "result": 51.4, "unit": "°C"}, {"measurement": "Replicate 2", "setting": "[4]", "result": 51.4, "unit": "°C"}, {"measurement": "Replicate 3", "setting": "[4]", "result": 51.0, "unit": "°C"}, {"measurement": "Tm 1", "setting": "[4]", "result": 51.3, "unit": "°C"}, {"measurement": "Tm2", "setting": "[4]", "result": 50.9, "unit": "°C"}, {"measurement": "Tm 3", "setting": "[4]", "result": 51.6, "unit": "°C"}, {"measurement": "Overall average (Tm)", "setting": "[4]", "result": 51.2, "unit": "°C"}]}]}
